In ChEMBL document CHEMBL1201862, “PubChem BioAssay data set” (2004):
Several values for one entry are separate records, joined by “and”; a condition that tells them apart may be missing. Equal values may be shown once.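 A five-concentration, 48-hour dose response in 96-well plates underlies each endpoint, interpolated linearly between surrounding concentrations. Here, GI50 denotes the concentration required for 50% inhibition of growth.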 Activity calls are given as the source filed them. Cut-off read from the data, not from the text of the source: active = GI50 up to about 1.1 µM and inactive = higher.

Experiments:
Assay in all cases: DTP human tumour cell line panel, 48 h
NCI-H226 = system: NCI-H226
CAKI-1 = system: CAKI-1
SN12C = system: SN12C
SW-620 = system: SW-620
OVCAR-8 = system: OVCAR-8
DU-145 = system: DU-145
SNB-19 = system: SNB-19
UO-31 = system: UO-31
UACC-257 = system: UACC-257
HOP-62 = system: HOP-62
UACC-62 = system: UACC-62
OVCAR-4 = system: OVCAR-4
CCRF-CEM = system: CCRF-CEM
EKVX = system: EKVX
MOLT-4 = system: MOLT-4
NCI/ADR-RES = system: NCI/ADR-RES
PC-3 = system: PC-3
SK-MEL-2 = system: SK-MEL-2
NCI-H23 = system: NCI-H23
SF-539 = system: SF-539

Measured: GI50

O=C(c1ccccc1)c1ccc2[nH]c(-c3c(Cl)c(Cl)c(Cl)c(Cl)c3C(=O)Nc3ccco3)nc2c1
inactive: NCI-H226 54.2 µM | CAKI-1 > 100 µM | SN12C 48.2 µM | SW-620 37.8 µM | OVCAR-8 60.3 µM | DU-145 78.9 µM | SNB-19 99.8 µM | UO-31 51.5 µM | UACC-257 45.7 µM | HOP-62 45.3 µM | UACC-62 49.5 µM | OVCAR-4 42.3 µM | CCRF-CEM 26.9 µM | EKVX 67 µM | MOLT-4 18.6 µM | NCI/ADR-RES 16.4 µM | PC-3 17.1 µM | SK-MEL-2 20.9 µM | NCI-H23 4.86 µM

Cc1ccccc1/N=N/c1c(O)ccc2ccccc12
inactive: NCI-H226 > 100 µM | CAKI-1 > 100 µM | SN12C > 100 µM | SW-620 > 100 µM | OVCAR-8 > 100 µM | DU-145 > 100 µM | SNB-19 > 100 µM | UO-31 > 100 µM | UACC-257 > 100 µM | HOP-62 48.1 µM | UACC-62 > 100 µM | OVCAR-4 70.5 µM | CCRF-CEM > 100 µM | EKVX 47.6 µM | MOLT-4 > 100 µM | NCI/ADR-RES > 100 µM | PC-3 > 100 µM | SK-MEL-2 > 100 µM | NCI-H23 > 100 µM

Cc1nn2c(C(=O)N/N=C/c3ccccc3O)c(C)nc2s1
inactive: NCI-H226 89.3 µM | CAKI-1 > 100 µM | SN12C 73.1 µM | SW-620 > 100 µM | OVCAR-8 > 100 µM | SF-539 > 100 µM | DU-145 > 100 µM | SNB-19 > 100 µM | UO-31 > 100 µM | UACC-257 > 100 µM | HOP-62 > 100 µM | UACC-62 > 100 µM | OVCAR-4 > 100 µM | CCRF-CEM 41.2 µM | EKVX > 100 µM | MOLT-4 51.9 µM | NCI/ADR-RES 61.4 µM | NCI-H23 > 100 µM

COc1cc(-c2oc3c(OC)c(OC)cc(O)c3c(=O)c2OC)ccc1O [TERNATIN]
inactive: CAKI-1 7 µM | OVCAR-8 20.7 µM | SF-539 6.18 µM and 7.5 µM | DU-145 7.43 µM | SNB-19 41.6 µM and 49.8 µM | UACC-257 > 100 µM | UACC-62 8.39 µM and 4.7 µM | CCRF-CEM 3.38 µM and 2.42 µM | EKVX 11.4 µM | MOLT-4 12.7 µM | NCI/ADR-RES 38.8 µM | PC-3 20.4 µM

COc1ccc2c(C)cc(=O)oc2c1OC
inactive: NCI-H226 > 100 µM | SN12C > 100 µM | SW-620 > 100 µM | OVCAR-8 > 100 µM | DU-145 > 100 µM | SNB-19 > 100 µM | UO-31 > 100 µM | UACC-257 > 100 µM | HOP-62 > 100 µM | UACC-62 > 100 µM | OVCAR-4 > 100 µM | CCRF-CEM > 100 µM | EKVX > 100 µM | MOLT-4 > 100 µM | NCI/ADR-RES > 100 µM | PC-3 > 100 µM | SK-MEL-2 > 100 µM | NCI-H23 > 100 µM

COc1cccc(-c2nc(-c3cnccn3)n(C3OC(CO)C(O)C3O)n2)c1 (stereo not given)
inactive: SN12C > 100 µM | SW-620 > 100 µM | OVCAR-8 > 100 µM | SF-539 > 100 µM | DU-145 > 100 µM | SNB-19 > 100 µM | UO-31 > 100 µM | UACC-257 > 100 µM | HOP-62 > 100 µM | UACC-62 > 100 µM | OVCAR-4 > 100 µM | CCRF-CEM > 100 µM | EKVX > 100 µM | MOLT-4 > 100 µM | NCI/ADR-RES > 100 µM | PC-3 > 100 µM | NCI-H23 > 100 µM

O=C(/C=C/c1ccc(Oc2cc(C(=O)/C=C/c3ccc(O)cc3)c(O)cc2O)cc1)c1ccc(O)cc1O [RHUSCHALCONE II]
inactive: CAKI-1 4.14 µM | SN12C 4.41 µM | SW-620 4.82 µM | OVCAR-8 2.64 µM | SF-539 2.43 µM | DU-145 3.38 µM | SNB-19 6.89 µM | UO-31 6.3 µM | UACC-257 12.7 µM | HOP-62 5.38 µM | UACC-62 4.62 µM | OVCAR-4 4.98 µM | CCRF-CEM 2.51 µM | EKVX 13.2 µM | MOLT-4 4.09 µM | NCI/ADR-RES 3.85 µM | PC-3 5.27 µM | SK-MEL-2 7.6 µM | NCI-H23 6.19 µM

CC(C)=NN/C(=N\c1ccc(Cl)cc1)NS(=O)(=O)c1ccc(C)cc1
inactive: NCI-H226 > 100 µM | CAKI-1 62.2 µM | SN12C 84.5 µM | SW-620 > 100 µM | OVCAR-8 > 100 µM | DU-145 47.9 µM | SNB-19 > 100 µM | UO-31 > 100 µM | UACC-257 35.2 µM | HOP-62 69 µM | UACC-62 49 µM | OVCAR-4 51.1 µM | CCRF-CEM > 100 µM | EKVX 52.6 µM | MOLT-4 41.5 µM | NCI/ADR-RES 69.3 µM | PC-3 41.2 µM | SK-MEL-2 73.1 µM | NCI-H23 > 100 µM

CCCC1(CCC)c2cc(/C=N\O)ccc2-c2ccc(-c3ccc(C(C)(C)C)cc3)cc21
inactive: CAKI-1 > 100 µM | SN12C 23.1 µM | SW-620 34.2 µM | OVCAR-8 32.5 µM | SF-539 > 100 µM | DU-145 > 100 µM | SNB-19 > 100 µM | UO-31 > 100 µM | UACC-257 93.1 µM | HOP-62 > 100 µM | OVCAR-4 > 100 µM | CCRF-CEM 29.2 µM | EKVX 56.8 µM | MOLT-4 23.4 µM | NCI/ADR-RES 53.8 µM | PC-3 59.6 µM | SK-MEL-2 29 µM | NCI-H23 48.3 µM

Nc1nc(SCc2ccccn2)c2ncn(C3CCCC3)c2n1
inactive: NCI-H226 > 100 µM | CAKI-1 > 100 µM | SN12C > 100 µM | SW-620 > 100 µM | OVCAR-8 > 100 µM | DU-145 > 100 µM | SNB-19 > 100 µM | UO-31 15 µM | UACC-257 > 100 µM | HOP-62 > 100 µM | UACC-62 > 100 µM | OVCAR-4 > 100 µM | CCRF-CEM > 100 µM | EKVX > 100 µM | NCI/ADR-RES > 100 µM | PC-3 > 100 µM | SK-MEL-2 > 100 µM | NCI-H23 > 100 µM

COC(=O)C1=C(C(=O)OC)SC(=C2SC3=C(SC(=C4SCCS4)S3)S2)S1
inactive: NCI-H226 > 100 µM | CAKI-1 > 100 µM | SN12C > 100 µM | SW-620 > 100 µM | OVCAR-8 > 100 µM | DU-145 > 100 µM | SNB-19 > 100 µM | UO-31 > 100 µM | UACC-257 > 100 µM | HOP-62 > 100 µM | UACC-62 > 100 µM | CCRF-CEM > 100 µM | EKVX > 100 µM | MOLT-4 > 100 µM | NCI/ADR-RES > 100 µM | PC-3 > 100 µM | SK-MEL-2 > 100 µM | NCI-H23 > 100 µM
